The results in this text go back to paper PMC10137179, “Assessment of Covalently Binding Warhead Compounds in the Validation of the Cytomegalovirus Nuclear Egress Complex as an Antiviral Target” (Cells, 2023).

A word on the EC50: it is the concentration that produces a half-maximal response. A lower EC50 goes with higher potency in that assay.

The target in experiment [1] is T1, pUL50–pUL53 interaction (LgBiT::UL53(1–87)-Flag + SmBiT::UL50-HA) (Human cytomegalovirus, UniProt P16791).
T1 construct: expressed in transfected cells; host or cells: 293T
T1 sequence (P16791 whole entry): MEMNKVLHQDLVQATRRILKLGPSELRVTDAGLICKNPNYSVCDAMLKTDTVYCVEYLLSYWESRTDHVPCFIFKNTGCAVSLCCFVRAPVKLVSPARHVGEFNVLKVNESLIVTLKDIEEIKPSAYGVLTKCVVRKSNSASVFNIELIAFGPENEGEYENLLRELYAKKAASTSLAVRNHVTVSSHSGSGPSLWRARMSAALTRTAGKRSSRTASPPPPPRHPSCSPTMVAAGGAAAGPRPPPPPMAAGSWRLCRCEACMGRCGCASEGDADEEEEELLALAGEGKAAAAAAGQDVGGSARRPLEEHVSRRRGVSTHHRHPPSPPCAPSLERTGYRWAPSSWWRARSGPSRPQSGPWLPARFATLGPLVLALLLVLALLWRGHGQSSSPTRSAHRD
It is filed as cell-based. Conditions: 293T cells, 5×, 1× or 0.2× anti-HCMV EC50 levels, truncated LgBiT::UL53(1–87)-Flag.

The target in experiment [2] is T2, HCMV pUL50-HA + pUL53-Flag (Human cytomegalovirus, UniProt P16791).
T2 construct: expressed in transfected cells; host or cells: HeLa
T2 sequence (P16791 whole entry): as above
Briefly: Confocal imaging of core NEC localization in cotransfected HeLa cells, HCMV. It is filed as cell-based. To be noted: 4 µM, 3 d p.t. The protocol:
HFF or HFF-UL50 cells, either Dox-induced or uninduced, were seeded in 6-well plates with a density of 2 × 10^5 cells per well, grown on coverslips and infected with HCMV AD169 or AD169 ∆UL50-ΣUL53. For infection experiments with the recombinant virus, different Shield-1 and Dox conditions were analyzed. Antivirals were added post-infection as described for the experiments. For transfection experiments, HeLa cells were seeded on coverslips in 6-well plates with a density of 3.25 × 10^5 cells per well for cotransfection with the indicated NEC expression plasmids (HSV-1 HA-UL34 + Flag-UL31, HCMV pUL50-HA + pUL53-Flag and EBV HA-BFRF1 + Flag-BFLF2). At indicated time points after virus infection, or 3 days post-transfection, cells were fixed, applied for IF staining as described previously and analyzed using a TCS SP5 confocal laser-scanning microscope with Leica LAS AF software (Leica Microsystems, Wetzlar, Germany). […] The device features a Leica photomultiplier tube (PMT) and a hybrid detector (HyD). Images were further processed using Photoshop CS5 (Adobe Inc., San José, CA, USA). […] Microscopic counting was performed for quantitation of colocalization patterns of two different proteins, as achieved by counting 50 cells per biological triplicate. […]

For experiment [3], the system named is HCMV AD169-GFP. Description: microbe, parasite or virus in culture. It is filed as cell-based, human cytomegalovirus (HCMV). To be noted: Human betaherpesvirus 5, AD169, 168 h, clinically relevant warheads, 0.1 µM to 50 µM, AD169-GFP-infected HFFs, 7 d p.i. On the procedure:
Cytotoxicity of the analyzed compounds was determined by the Neutral Red dye uptake assay. A total of 1.35 × 10^5 HFFs per well were seeded in 96-well plates 1 d prior to analysis, cultivated overnight until cells were confluent and then incubated with compounds for 7 days. The assay was performed as described previously using 40 μg/mL Neutral Red (Sigma Aldrich). The quantity of dye incorporation was determined using the Victor X4 microplate reader (PerkinElmer, Waltham, MA, USA) by fluorescence measurement at 560/630 nm for excitation/emission, respectively. To assess antiviral activity of compounds, HFFs seeded in 96-well plates (1.35 × 10^5 HFFs per well) were infected with HCMV AD169-GFP or TB40-IE2-YFP to reach 25–50% infected cells at 7 days post-infection (d p.i.). After incubation with the infectious inoculum for 1.5 h at 37 °C, compounds were added in serial dilutions. At 7 d p.i., cells were fixed for 10 min at room temperature using 10% formalin. Finally, cells were washed once with PBS followed by automated fluorescence quantitation.
Seeking for a novel group of potential antiviral agents, small molecules with covalent protein-binding activity were investigated. These small molecules, originally developed as kinase inhibitors, carry a so-called warhead moiety as an important functional group, such as the prototype afatinib (Figure 1A, red circle). In this study, a series of newly generated warhead compounds (most of which are the property of B.K./Lead Discovery Center, Dortmund, Germany) were used for an evaluation of putative antiviral and core NEC-inhibitory properties. In a first step, the antiviral activity of warheads was analyzed against HCMV TB40-IE2-YFP (Figure 1B) and AD169-GFP (Figure 1C). To this end, HFFs were infected with either of the two viral strains before the GFP or YFP reporter signals were measured at 7 d p.i. (in parallel, putative compound cytotoxicity was determined by Neutral Red assay). The HCMVs AD169-GFP and TB40-IE2-YFP, based on BAC-derived recombinants of the laboratory strains AD169 and TB40, respectively, were both propagated on HFFs, and the produced stocks were then used as two reporter viruses for the assessement of antiviral drug activity. While strain AD169 is mainly restricted in its tropism to fibroblasts, TB40 tropism can be extended to fibroblasts and epithelial and endothelial cells. Here, the use of two strains was intended to illustrate the assumption that antiviral activity of these warhead compounds may be directed to conserved viral target proteins, thus pointing out a minor impact of strains.
(A) Chemical structure of a clinically approved prototype of covalently binding warhead inhibitors, […], afatinib/Gilotrif®. The red circle identifies a functionally active α-, β-unsaturated carbonyl group. (B) At 7 d p.i., compounds were analyzed for their cytotoxicity (orange) and antiviral activity (blue) during HCMV infection, using TB40-IE2-YFP as a reporter virus. Cell viability was assessed through Neutral Red staining of uninfected cells. Measurements were performed in quadruplicate (YFP fluorometry) or triplicate (Neutral Red assay), and standard deviations of mean values are given; EC50, CC50 and SI values are indicated accordingly. (C) In a parallel series of analyses, HCMV AD169-GFP was used as another reporter virus representing a second viral strain. […] HCMV AD169-GFP-infected HFFs were treated with 0.1 µM to 50 µM of the compounds (in parallel Neutral Red assay, 0.1 µM to 100 µM), before the signal assessments were performed at 7 d p.i.

Experiment [4] concerns the target T3, pUL50–pUL53 interaction (LgBiT::UL53-Flag + SmBiT::UL50-HA) (Human cytomegalovirus, UniProt P16791).
T3 construct: expressed in transfected cells; host or cells: 293T
The format is cell-based. Conditions: 293T cells, 5×, 1× or 0.2× anti-HCMV EC50 levels, full-length LgBiT::UL53-Flag.

T3 sequence (P16791 whole entry): as above

For `C=CC(=O)N1CCC[C@@H](n2nc(-c3ccc(Oc4ccccc4)cc3)c3c(N)ncnc32)C1` [ibrutinib], the “inhibitory effect on NanoBiT interaction signal (in words)” value in experiment [1] is listed as “most prominent, dose-dependent reduction in the measured interaction signal”; in experiment [4], “most prominent, dose-dependent reduction in the measured interaction signal”. For the same compound, the “core NEC nuclear rim localization (in words)” value in experiment [2] was “predominant dot-like aggregation and speckle formation”. The compound also showed an EC50 in experiment [3] of 16 ± 6 µM.
